As usually defined, the EC50 is the concentration needed to bring the measured effect to its halfway point.

The target in the first test is human APJ receptor (Homo sapiens (Human), UniProt P35414). In words: Intracellular cAMP accumulation assay (APJ hcAMP, HTRF). Conditions: HEK293 cells stably expressing human APJ receptor; inhibition of forskolin-mediated cAMP production; read-out: Human APJ cAMP EC50 Potency range. In kind it is cell-based. The procedure, abridged: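 HEK293 cells stably expressing human APJ, 5,000 per well, incubated 30 min at rt with compound, […] and 2 μM forskolin. cAMP measured by HTRF against a cAMP standard curve as inhibition of forskolin-driven production. EC50 from variable-slope sigmoidal fit.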
Sequence of human APJ receptor (P35414 whole entry): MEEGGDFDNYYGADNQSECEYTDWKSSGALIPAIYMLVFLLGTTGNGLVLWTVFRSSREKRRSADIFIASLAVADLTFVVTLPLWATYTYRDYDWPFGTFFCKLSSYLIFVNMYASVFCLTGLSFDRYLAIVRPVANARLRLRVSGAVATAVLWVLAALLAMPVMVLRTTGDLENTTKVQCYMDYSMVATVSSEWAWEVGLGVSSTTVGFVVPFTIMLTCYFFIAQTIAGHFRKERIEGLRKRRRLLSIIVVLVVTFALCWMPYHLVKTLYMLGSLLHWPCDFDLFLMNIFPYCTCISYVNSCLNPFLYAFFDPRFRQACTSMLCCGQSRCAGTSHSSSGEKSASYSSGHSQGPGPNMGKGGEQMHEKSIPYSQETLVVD
(In general: Changes in cAMP serve as a functional read-out for many G protein-coupled receptors.)
As to `CCCCc1nc(=O)c(S(=O)(=O)c2ccc(-c3c[nH]nc3C)cc2)c(O)n1[C@@H](CC)c1cccc(C#N)c1` [Example 495, 3-[(1S)-1-{2-butyl-6-hydroxy-5-[4-(3-methyl-1H-pyrazol-4-yl)benzenesulfonyl]-4-oxo-1,4-dihydropyrimidin-1-yl}propyl]benzonitrile], the EC50 fell in the range of 0.01 to 10 nM. Turning to `CCCCc1nc(=O)c(S(=O)(=O)[C@H]2CC[C@@H](O)CC2)c(O)n1-c1c(CC)cccc1CC` [Example 554, 2-butyl-1-(2,6-diethylphenyl)-6-hydroxy-5-{[(1s,4s)-4-hydroxycyclohexyl]sulfonyl}-1,4-dihydropyrimidin-4-one], the EC50 was 0.01 to 10 nM. Regarding `CC[C@@H](c1cccc(C#N)c1)n1c(COC(C)C)nc(=O)c(S(=O)(=O)c2ccc(-c3cnccc3C#N)cc2)c1O` [Example 410, 3-[4-({1-[(1S)-1-(3-cyanophenyl)propyl]-6-hydroxy-4-oxo-2-[(propan-2-yloxy)methyl]-1,4-dihydropyrimidin-5-yl}sulfonyl)phenyl]pyridine-4-carbonitrile], the 50% effective concentration (EC50) lay in the range of 0.01 to 10 nM. With `COC[C@@H](c1cc(F)cc(F)c1)n1c(COC(C)C)nc(=O)c(S(=O)(=O)c2ccc(-c3ccccc3C(N)=O)cc2)c1O` [Example 392, 4′-({1-[(1R)-1-(3,5-difluorophenyl)-2-methoxyethyl]-6-hydroxy-4-oxo-2-[(propan-2-yloxy)methyl]-1,4-dihydropyrimidin-5-yl}sulfonyl)-[1,1′-biphenyl]-2-carboxamide], the concentration for a half-maximal effect (EC50) was in the range of 0.01 to 10 nM.

Turning to `COC[C@@H](c1cc(F)cc(F)c1)n1c(COC(C)C)nc(=O)c(S(=O)(=O)c2ccc(-c3cnccc3C#N)cc2)c1O` [Example 407, 3-[4-({1-[(1R)-1-(3,5-difluorophenyl)-2-methoxyethyl]-6-hydroxy-4-oxo-2-[(propan-2-yloxy)methyl]-1,4-dihydropyrimidin-5-yl}sulfonyl)phenyl] pyridine-4-carbonitrile], the concentration for a half-maximal effect (EC50) fell in the range of 0.01 to 10 nM.

Take `CC[C@@H](c1cccc(C#N)c1)n1c(COC(C)C)nc(=O)c(S(=O)(=O)c2ccc(-c3cccnc3C)cc2)c1O` [Example 384, 3-[(1S)-1-{6-hydroxy-5-[4-(2-methylpyridin-3-yl)benzenesulfonyl]-4-oxo-2-[(propan-2-yloxy)methyl]-1,4-dihydropyrimidin-1-yl}propyl]benzonitrile]: the concentration for a half-maximal effect (EC50) is 0.01 to 10 nM. For `CCCCc1nc(=O)c(S(=O)(=O)c2ccc(-c3cccnc3C)cc2)c(O)n1[C@@H](CC)c1ccc(F)c(C#N)c1` [Example 439, 5-[(1S)-1-{2-butyl-6-hydroxy-5-[4-(2-methylpyridin-3-yl)benzenesulfonyl]-4-oxo-1,4-dihydropyrimidin-1-yl}propyl]-2-fluorobenzonitrile], the EC50 lay within 0.01 to 10 nM.

Take `COc1cccc(OC)c1-n1c(-c2ccc(F)cc2)nc(=O)c(S(=O)(=O)c2ccc(Br)cc2)c1O` [Example 269, 5-((4-Bromophenyl)sulfonyl)-1-(2,6-dimethoxyphenyl)-2-(4-fluorophenyl)-6-hydroxypyrimidin-4(1H)-one]: the EC50 lay in the range of 100 to 300 nM. On the same count and under the same terms, under `CCCCc1nc(=O)c(S(=O)(=O)c2ccc(C(=O)NN)cc2)c(O)n1-c1c(OC)cccc1OC` [Example 116, 4-((2-Butyl-1-(2,6-dimethoxyphenyl)-6-hydroxy-4-oxo-1,4-dihydropyrimidin-5-yl)sulfonyl)benzohydrazide] stands 0.01 to 10 nM; under `CCCCc1nc(=O)c(S(=O)(=O)c2ccc(-c3cncc(F)c3)cc2)c(O)n1[C@@H](C)c1ccccc1` [Example 128, (S)-2-Butyl-5-((4-(5-fluoropyridin-3-yl)phenyl)sulfonyl)-6-hydroxy-1-(1-phenylethyl)pyrimidin-4(1H)-one], 0.01 to 10 nM; under `CCCCc1nc(=O)c(S(=O)(=O)c2ccc(-c3ccnc(F)c3C)cc2)c(O)n1[C@H](c1cccc(C#N)c1)C(C)C` [Example 451, 3-[(1S)-1-{2-butyl-5-[4-(2-fluoro-3-methylpyridin-4-yl)benzenesulfonyl]-6-hydroxy-4-oxo-1,4-dihydropyrimidin-1-yl}-2-methylpropyl]benzonitrile], 0.01 to 10 nM. The same measure, in the same setting: under `CCCCc1nc(=O)c(S(=O)(=O)c2ccc(-c3cccn(C)c3=O)cc2)c(O)n1[C@H](c1cccc(C#N)c1)C1CC1` [Example 480, 3-[(S)-{2-butyl-6-hydroxy-5-[4-(1-methyl-2-oxo-1,2-dihydropyridin-3-yl)benzenesulfonyl]-4-oxo-1,4-dihydropyrimidin-1-yl}(cyclopropyl)methyl] benzonitrile] stands 0.01 to 10 nM.

The test is the same for the next values; noted with them: human APJ, cAMP accumulation; read-out: Human APJ cAMP EC50 Potency range.
Consider `CCCCc1nc(=O)c(S(=O)(=O)c2ccc(-c3ccc(F)nc3)cc2)c(O)n1[C@@H](CC)c1ccccc1` [Example 289, 2-butyl-5-[4-(6-fluoropyridin-3-yl)benzenesulfonyl]-6-hydroxy-1-[(1S)-1-phenylpropyl]-1,4-dihydropyrimidin-4-one], for which the 50% effective concentration (EC50) lay within 0.01 to 10 nM. For `COc1cccc(OC)c1-n1c(-c2cncc(C)c2)nc(=O)c(S(=O)(=O)c2ccc(Br)cc2)c1O` [Example 270, 5-(4-bromobenzenesulfonyl)-1-(2,6-dimethoxyphenyl)-6-hydroxy-2-(5-methylpyridin-3-yl)-1,4-dihydropyrimidin-4-one], the EC50 was 10 to 100 nM. On to `CCOCc1nc(=O)c(S(=O)(=O)c2ccc(Br)cc2)c(O)n1[C@@H](COC)c1ccccc1` [Example 296, 5-(4-bromobenzenesulfonyl)-2-(ethoxymethyl)-6-hydroxy-1-[(1R)-2-methoxy-1-phenylethyl]-1,4-dihydropyrimidin-4-one], for which the half-maximal effective concentration (EC50) fell in the range of 100 to 300 nM. `CCOCc1nc(=O)c(S(=O)(=O)c2ccc(Br)c(F)c2)c(O)n1C(COC)c1cccc(F)c1` (stereo not drawn) [Example 298, 5-(4-bromo-3-fluorobenzenesulfonyl)-2-(ethoxymethyl)-1-[1-(3-fluorophenyl)-2-methoxyethyl]-6-hydroxy-1,4-dihydropyrimidin-4-one]: the concentration giving a half-maximal response (EC50) fell in the range of 0.01 to 10 nM. As for `CCCCc1nc(=O)c(S(=O)(=O)c2ccc(-c3cncc(F)c3)cc2)c(O)n1[C@H]1CCCc2ccccc21` [Example 222, 2-butyl-5-[4-(5-fluoropyridin-3-yl)benzenesulfonyl]-6-hydroxy-1-[(1S)-1,2,3,4-tetrahydronaphthalen-1-yl]-1,4 dihydropyrimidin-4-one], the EC50 lay within 0.01 to 10 nM.

Still in this test, the particulars now being: human APJ, intracellular cAMP accumulation; read-out: Human APJ cAMP EC50 Potency range.
As for `CCCCc1nc(=O)c(S(=O)(=O)C2CCN(C(=O)CC(F)(F)F)CC2)c(O)n1-c1c(OC)cccc1OC` [Example 114, 2-butyl-1-(2,6-dimethoxyphenyl)-6-hydroxy-5-{[1-(3,3,3-trifluoropropanoyl)piper-idin-4-yl]sulfonyl}-1,4-dihydropyrimidin-4-one], the EC50 lay within 0.01 to 10 nM. Regarding `CCCCc1nc(=O)c(S(=O)(=O)c2ccc(-c3ccc(F)nc3)cc2)c(O)n1[C@@H](CC)c1cccc(OC)c1` [Example 146, 2-butyl-5-[4-(6-fluoropyridin-3-yl)benzenesulfonyl]-6-hydroxy-1-[(1S)-1-(3-methoxyphenyl)propyl]-1,4-dihydropyrimidin-4-one], the 50% effective concentration (EC50) was 0.01 to 10 nM. `CCCCc1nc(=O)c(S(=O)(=O)c2ccc(-c3cnc(F)cc3C)cc2)c(O)n1[C@H]1CCc2ccccc21` [Example 170, 2-butyl-1-[(1S)-2,3-dihydro-1H-inden-1-yl]-5-[4-(6-fluoro-4-methylpyridin-3-yl)benzenesulfonyl]-6-hydroxy-1,4-dihydropyrimidin-4-one]: the concentration for a half-maximal effect (EC50) fell in the range of 0.01 to 10 nM. Still for that read-out and setting: as for `COc1cccc(OC)c1-n1c(CCC(C)C)nc(=O)c(S(=O)(=O)c2ccc(-c3ccc(C#N)nc3)cc2)c1O` [Example 17, 5-(4-{[1-(2,6-dimethoxyphenyl)-6-hydroxy-2-(3-methylbutyl)-4-oxo-1,4-dihydropyrimidin-5-yl]sulfonyl}phenyl)pyri-dine-2-carbonitrile], the figure is 0.01 to 10 nM; as for `COc1cccc(OC)c1-n1c(CCC(C)C)nc(=O)c(S(=O)(=O)c2cccc(-c3ccc(F)cc3)c2)c1O` [Example 18, 1-(2,6-dimethoxyphenyl)-5-[3-(4-fluorophenyl)benzene-sulfonyl]-6-hydroxy-2-(3-methylbutyl)-1,4-dihydropyrimidin-4-one], 0.01 to 10 nM. `CCCCc1nc(=O)c(S(=O)(=O)c2ccc(-c3ccccc3)cc2)c(O)n1-c1c(OC)cccc1OC` [Example 8, 2-butyl-1-(2,6-dimethoxyphenyl)-6-hydroxy-5-(4-phenylbenzenesulfonyl)-1,4-dihydropyrimidin-4-one]: the EC50 lay in the range of 0.01 to 10 nM. Regarding `CCCCc1nc(=O)c(S(=O)(=O)c2ccc(-c3ccc(Cl)nc3C)cc2)c(O)n1-c1c(OC)cccc1OC` [Example 61, 2-butyl-5-[4-(6-chloro-2-methylpyridin-3-yl)benzenesulfonyl]-1-(2,6-dimethoxyphenyl)-6-hydroxy-1,4-dihydropyrimidin-4-one], the EC50 is 0.01 to 10 nM. On to `COc1cccc(OC)c1-n1c(CCC(C)C)nc(=O)c(S(=O)(=O)c2ccc(-n3ccccc3=O)cc2)c1O` [Example 73, 1-(2,6-dimethoxyphenyl)-6-hydroxy-2-(3-methylbutyl)-5-[4-(2-oxo-1,2-dihydropyridin-1-yl)benzenesulfonyl]-1,4-dihydropyrimidin-4-one], for which the concentration giving a half-maximal response (EC50) lay within 0.01 to 10 nM.

For the compound `CCCCc1nc(=O)c(S(=O)(=O)c2ccc(-c3ccccc3F)cc2)c(O)n1-c1c(OC)cccc1OC` [Example 57, 2-butyl-1-(2,6-dimethoxyphenyl)-5-[4-(2-fluorophenyl)benzene-sulfonyl]-6-hydroxy-1,4-dihydropyrimidin-4-one], the EC50 lay within 0.01 to 10 nM. Consider `CCCCc1nc(=O)c(S(=O)(=O)c2ccc(C)cc2)c(O)n1-c1c(CC)cccc1CC` [Example 66, 2-butyl-1-(2,6-diethylphenyl)-6-hydroxy-5-(4-methylbenzenesulfonyl)-1,4-dihydropyrimidin-4-one], for which the EC50 lay in the range of 0.01 to 10 nM.

Source of the values: patent US10508104B2, “6-hydroxy-5-(phenyl/heteroarylsulfonyl)pyrimidin-4(1H)-one as APJ agonists” (Bristol-Myers Squibb Company, priority 2016, dated 2019).
